Measured values: patent publication US20040259889A1, “Methods of treating pulmonary disease” (priority 2001, published 2004)

Legend:
[1] = tested on: pacing HF preparations (Yorkshire pigs); test: Systemic and pulmonary hemodynamics after A1 adenosine receptor antagonist infusion in pacing heart failure pigs (Example 2); format: in vivo, pig
Method: Four Yorkshire pigs (25-30 kg, male, Hambone Farms, SC) were implanted with a pacemaker (8329, Medtronic, Inc., Minneapolis, Minn.) in order to induce pacing CHF as described above. Ten to 14 days following recovery from the surgical procedure, a baseline echocardiographic study (ATL Ultramark VI, 2.25 MHz transducer, Bothell, Wash.) was performed and pacing initiated at 240 beats/min for 3 weeks. An additional group of 6 normal control animals were cared for in identical fashion with the exception of the pacing protocol. At the conclusion of the 3-week pacing period, the pacemakers were deactivated and echocardiographic studies were used to image the LV from a right parasternal approach. Following the echocardiographic study, the animals were prepared for acute instrumentation and initiation of the study protocol.
The pigs were anesthetized (i.v. sufentanyl […], etomidate 0.3 mg/kg) and paralyzed (vecuronium 10 mg, tubocurarine 12 mg). A maintenance infusion of 10 ml/kg/hr of lactated ringer's solution was maintained throughout the protocol. A thermodilution catheter (7.5 Fr, Baxter Healthcare Corp., Irvine, Calif.) was positioned in the pulmonary artery via the right external jugular vein and a large bore catheter (7 Fr) was placed in the left external jugular vein for fluid administration. The carotid artery was exposed and cannulated, and the catheter (7 Fr) was advanced to the aortic root for aortic blood pressure measurements and blood sampling drained.
Following instrumentation and a 10-minute stabilization period, baseline hemodynamics were recorded and digitized. Thermodilution derived cardiac output and ejection fraction were obtained from the pulmonary artery catheter in triplicate. Pulmonary and systemic vascular resistances were computed from the pressure measurements and cardiac output and using standard formulae.
Following instrumentation and collection of baseline measurements, the A1 receptor antagonist (3-[4-(2,6-Dioxo-1,3-dipropyl-2,3,6,7-tetrahydro-1H-purin-8-yl)-bicyclo[2.2.2]oct-1-yl]-propionic acid (BG9928), 1 mg/kg) was infused intravenously. Hemodynamic measurements described in the previous section were repeated at 10, 20, 30, 60, 90, and 120 minutes post infusion.
Comparisons of basal hemodynamics between the control and HF groups were performed using Student's t-test. Time-dependent changes in hemodynamics following A1 block infusion were examined by ANOVA. Pair wise comparisons were performed with a Bonferroni adjusted t-test. All statistical analyses were performed using statistical software programs (BMDP Statistical Software Inc. University of California Press, Los Angeles, Calif.). Results are presented as mean ± standard error of the mean (SEM). Values of p<0.05 were considered to be statistically significant.

[2] = tested on: pacing heart failure preparations (Yorkshire pigs); test: Systemic and pulmonary hemodynamics after A1 adenosine receptor antagonist infusion in pacing heart failure pigs (Example 1); format: in vivo, pig
Text: Nineteen Yorkshire pigs (20-25 kg, male Hambone Farms, SC) were instrumented in order to induce pacing cardiac heart failure as described in Tomita et al., Circulation, 83, pp. 635-644 (1991). Briefly, under isoflurane anesthesia (3% in 1.5 L/min of oxygen) and through a left thoracotomy, a shielded stimulated electrode was sutured onto the left atrium, connected to a modified programmable pacemaker (8329 Medtronic, Inc., Minneapolis, Minn.) and buried in a subcutaneous pocket. Ten to fourteen days following recovery from the surgical procedure, a baseline echocardiographic study was performed and pacing initiate at 240 beats/min for 3 weeks. An additional group of 7 normal control animals were cared for in identical fashion with the exception of the pacing protocol. At the conclusion of the 3-week pacing period, the pacemakers were de-activated and echocardiographic studies were performed. For these studies, the animals were brought to the laboratory and the pacemakers were deactivated. Two-dimensional and M-mode echocardiographic studies (ATL Ulmark VI, 2.25 MHz transducer, Bothell, Wash.) were used to image the left ventricle from a right parasternal approach. Following the echocardiographic study, the animals were prepared for acute instrumentation and initiation of the study protocol.
The pigs were anesthetized with intravenous boluses of sufentanyl 2.0 μg/kg, etomidate 0.3 mg/kg, and vecuronium 10 mg, after which a tracheostomy was performed. A tubocurarine 12 mg intravenous bolus was administered after obtaining arterial pressure. Anesthesia was maintained throughout the procedure by continuous intravenous infusions of morphine sulfate 3 mg/kg/hr and tubocurarine 2 mg/hr. Etomidate 0.1 mg/kg intravenous was also given at 30 minute intervals. A maintenance infusion of 10 ml/kg/hr of lactated Ringer's solution was maintained throughout the protocol. […] A multi-lumened thermodilution catheter (7.5 Fr, Baxter Healthcare Corp., Irvine, Calif.) was positioned in a pulmonary artery via the right external jugular vein and a large bore catheter (7 Fr) was placed in the left external jugular vein for fluid administration. The carotid artery was exposed and cannulated, and the catheter (7 Fr) was advanced to the aortic root for aortic blood pressure measurements and blood samplings.
Following instrumentation and a 15-minute stabilization period, baseline hemodynamics were recorded and digitized. Thermodilution derived cardiac output and ejection fraction were obtained from the pulmonary artery catheter in triplicate. All measurements were simultaneously recorded with the ventilator temporarily suspended in order to prevent respiratory artifact the recordings. An arterial sample was drawn for electrolyte assays. Pulmonary and systemic vascular resistances were computed from the thermodilution cardiac output and pressure measurements using standard formulae.
Following instrumentation and collection of baseline measurements, the animals were randomly assigned to receive either vehicle infusion (polyethylene glycol, 3 ml intravenous, n=10) or the A1 adenosine receptor antagonist (1 mg/kg 1,8-(3-Oxa-tricyclo[3.2.1.0^2,4]oct-6-yl)-1,3-dipropyl-3,7-dihydro-purine-2,6-dione (BG9719); n=9). Following infusion of vehicle or BG9719, the hemodynamic measurements described in the previous section were repeated at 10, 30, 60, 90, 120 minutes post infusion.
Changes in hemodynamics were initially examined between the control and A1 adenosine receptor antagonist (BG9719) groups by ANOVA. Comparisons between these baseline values following randomization were performed by a 2-way ANOVA. Comparisons of these parameters following infusion were compared using a multi-way ANOVA for repeated measures. Pair-wise comparisons were performed with a Bonferroni adjusted t-test. All statistical analyses were performed using statistical software programs (BMDP Statistical Software Inc. University of California Press, Los Angeles, Calif.).

[3] = BG9928 1 mg/kg intravenous infusion
[4] = BG9719 1 mg/kg infusion, 10-120 min post infusion

| Structure (SMILES) | systemic vascular resistance (SVR), change from baseline ([1]; 1 mg/kg intravenous infusion, 10 min post treatment) | pulmonary vascular resistance (PVR), fall from baseline ([1]; 1 mg/kg intravenous infusion, 10 min post treatment, p<0.05) [%] | cardiac output, change from baseline [1, 3] | heart rate, change from baseline [1, 3] | mean arterial pressure, change from baseline [1, 3] | pulmonary vascular resistance (PVR), decrease from baseline ([2]; 1 mg/kg intravenous infusion, 10 min post treatment, then returned to baseline levels, p<0.05) [%] | pulmonary artery pressure (PAP), change in words ([2]; 1 mg/kg, 30 minutes after treatment, remained depressed) | pulmonary capillary wedge pressure (PCWP), change in words ([2]; 1 mg/kg, 90 minutes after treatment) | pulmonary capillary wedge pressure (PCWP) ([2]; 1 mg/kg, 90 minutes post treatment, p<0.05, mean±SEM) [mmHg] | mean pulmonary artery pressure after treatment ([2]; 1 mg/kg, from 30 min post treatment, baseline 30±1 mmHg, p<0.05, mean±SEM) [mmHg] | systemic vascular resistance, change from baseline ([2]; BG9719 1 mg/kg infusion) | cardiac output (CO), change from baseline [2, 4] | heart rate (HR), change from baseline [2, 4] | mean arterial pressure (MAP), change from baseline [2, 4] |
| --- | --- | --- | --- | --- | --- | --- | --- | --- | --- | --- | --- | --- | --- | --- |
| CCCn1c(=O)c2[nH]c(C34CCC(CCC(=O)O)(CC3)CC4)nc2n(CCC)c1=O [BG9928, 3-[4-(2,6-Dioxo-1,3-dipropyl-2,3,6,7-tetrahydro-1H-purin-8-yl)-bicyclo[2.2.2]oct-1-yl]-propionic acid] | no change | 18 | No change | No change | No change | – | – | – | – | – | – | – | – | – |
| CCCn1c(=O)c2[nH]c(C3CC4CC3C3OC43)nc2n(CCC)c1=O (centres unmarked) [BG9719, 8-(3-Oxa-tricyclo[3.2.1.0^2,4]oct-6-yl)-1,3-dipropyl-3,7-dihydro-purine-2,6-dione] | – | – | – | – | – | 38 | decreased | decreased | 9 ± 2 | 23±3 | No change | No change | No change | No change |
